We go through three compounds from patent publication US8828451B2, “Akt sensitization of cancer cells” (University of South Florida, priority 2006, dated 2014).

Molecules are shown by their SMILES.

The test system of test [1] is A2780CP cells. To be noted: drug individually or combination of both drugs.
The subject of test [2] is C-13 cells. The conditions noted are these: C-13, drug individually or combination of both drugs.
Test [3] relates to A2780CP cells. The test is described as follows: MTT cell survival assay, CDDP-resistant A2780CP cells. To be noted: increasing amounts of CDDP alone, MTT 24 hr. (In general: Tetrazolium assays rely on reduction of a dye to a coloured formazan, in cell work by metabolically active cells.)
Protocol: (§1) CDDP-resistant ovarian cancer cell lines A2780CP and C-13 were treated with CDDP at indicated concentrations alone, or in combination with 10 μM API-2. Cell survival was determined 24 hr later by MTT assay.
API-2 was further investigated to determine whether it can overcome CDDP resistance by blocking Akt signaling pathways. A2780CP and C-13 cells were treated with increasing amounts of CDDP alone or in combination with 10 μM API-2.
Test [4] has as its system C-13 cells. The test is described as follows: MTT cell survival assay, CDDP-resistant C-13 cells. The conditions noted are these: C-13, increasing amounts of CDDP alone, MTT 24 hr.
Protocol: as §1
A2780CP and C-13 cells were treated with increasing amounts of CDDP alone or in combination with 10 μM API-2.
Test [5] concerns MCF-7 human breast cancer. The test is described as follows: Cell number growth over six days, MCF-7 cells. To be noted: MCF-7, 25 nM RAD001, 5 μM API-2 or combination. The format is cell-based.
Test [6] deals with Akt phosphorylation. Nature of the test: Western blot of MCF-7 lysates for phosphorylated Akt, S6, p70-S6K. The format is cell-based, human. The protocol: (A) OVCAR-3 human ovarian cancer and (B) MCF-7 human breast cancer cell lines were treated with mTOR inhibitors rapamycin (OVCAR-3 cells only) or RAD001 (MCF-7 cells only). Cell lysates were probed for phosphorylated and total Akt, and phosphorylated and total S6 at the indicated time points. […] Akt substrate FKHRL1, an apoptotic protein, was also detected.
(A) OVCAR-3 and (B) MCF-7 cells were treated with rapamycin (OVCAR-3 cells only), RAD001 (MCF-7 cells only), API-2, or a combination of API-2 with either rapamycin or RAD001. Akt phosphorylation increased in both cell lines after either rapamycin or RAD001 treatment.
Results of Western Blot for phosphorylated Akt (p-Akt) indicate C-13 and A2780CP cells had high levels of p-Akt. Further, cell survivability after chemotherapy appears directly connected to Akt up-regulation as C-13 had both the highest p-Akt and survivability. […] This caused an increase in p-Akt within 1 hour of treatment, confirming a relationship between p-Akt and cell survival after chemotherapy.
(In general: Immunoblotting shows a protein as a band on a membrane.)

With `CC(=O)O[C@H]1C(=O)[C@@]2(C)[C@H]([C@H](OC(=O)c3ccccc3)[C@]3(O)C[C@H](OC(=O)[C@H](O)[C@@H](NC(=O)c4ccccc4)c4ccccc4)C(C)=C1C3(C)C)[C@]1(OC(C)=O)CO[C@@H]1C[C@@H]2O` [Taxol], the “apoptosis (Capase-Glo 3/7)” value in test [1] and in test [2] was “increased apoptosis slightly” throughout.
Turning to `[Cl][Pt+2][Cl].[NH2-].[NH2-]` [CDDP, cis-Diammine-dicholoroplatinum(II)], the “effect on cell survival” value in test [3] and in test [4] was “no significant effect on cell survival” throughout.
On to `CO[C@H]1C[C@@H]2CC[C@@H](C)[C@@](O)(O2)C(=O)C(=O)N2CCCC[C@H]2C(=O)O[C@H]([C@H](C)C[C@@H]2CC[C@@H](OCCO)[C@H](OC)C2)CC(=O)[C@H](C)/C=C(\C)[C@@H](O)[C@@H](OC)C(=O)[C@H](C)C[C@H](C)/C=C/C=C/C=C/1C` [RAD001], for which the “cell growth (cell numbers)” value in test [5] is “inhibited cell growth”. In addition, the Akt phosphorylation entry in test [6] (MCF-7) was “increased with longer exposure time”. Also, the “phosphorylated S6” value in test [6] (MCF-7, indicated time points) is recorded as “decreased with exposure”.
